Results reported in patent publication US20250066445A1, “OBESITY TREATMENT AND PREVENTION METHODS” (VAULT BIOSCIENCES, INC., priority 2022, published 2025).

How the values were obtained:
Assay type in all cases: in vivo, human
[1] = Example 13 clinical study combining dulaglutide and fasting; conditions: One-Meal-A-Day, dose weeks 1-4: 0.2/0.375/0.375/0.6 mg
Source text: Example 13—Clinical Study of Combining Dulaglutide and Fasting Patients are subject to a combination HMT/HNT treatment protocol as described in Table 17 below. […] [table]

[2] = Example 14 clinical study combining dulaglutide and fasting; conditions: 15-hour fasting, dose weeks 1-4: 0.2/0.375/0.375/0.6 mg
Source text: Example 14—Clinical Study of Combining Dulaglutide and Fasting Patients are subject to a combination HMT/HNT treatment protocol as described in Table 18 below. […] [table]

[3] = Example 15 clinical study combining dulaglutide and fasting; conditions: 18-hour fasting, dose weeks 1-4: 0.2/0.375/0.375/0.6 mg
Source text: Example 15—Clinical Study of Combining Dulaglutide and Fasting Patients are subject to a combination HMT/HNT treatment protocol as described in Table 19 below. […] [table]

[4] = Example 1 clinical study combining semaglutide (injection) and fasting, Patient 1; conditions: One-Meal-A-Day
Source text: Example 1—Clinical Study of Combining Semaglutide (Injection) and Fasting
Patient 1 was subject to a combination HMT/HNT treatment protocol as described below.

[5] = Example 2 clinical study combining semaglutide (injection) and fasting; conditions: 15-hour fasting, dose weeks 1-4: .25/.50/.50/1 mg
Source text: Example 2—Clinical Study of Combining Semaglutide (injection) and Fasting Patients are subject to a combination HMT/HNT treatment protocol as described in Table 6 below. […] [table]

[6] = no exercise, no calorie counting
[7] = starting weight 282 lbs, 30 days, dose weeks 1-4: .25/.50/.50/1 mg, no exercise, no calorie counting

Substance	Hunger [1]	Therapeutic effects (e.g. weight loss) [1, 6]	Hunger [2]	Therapeutic effects (e.g. weight loss) [2, 6]	Hunger [3]	Therapeutic effects (e.g. weight loss) [3, 6]	Hunger ([4]; 30 days, dose weeks 1-4: .25/.50/.50/1 mg)	Hunger ([4]; 30 days, dose weeks 1-4: .25/.50/.50/1 mg, listed as Semaglutide (Injection))	Weight lost ([4]; in 30 days, no exercise, no caloric restrictions) [pounds]	% Bodyweight Reduction ([4]; starting weight 282 lbs, 30 days, dose weeks 1-4: .25/.50/.50/1 mg) [%]	% Bodyweight Reduction ([4]; starting weight 282 lbs, 30 days, dose weeks 1-4: .25/.50/.50/1 mg, listed as Semaglutide (Injection))	Bodyweight reduction [4, 7] [lbs]	Ending Weight [4, 7] [lbs]	Hunger [5]	Therapeutic effects (e.g. weight loss) [5, 6]
Dulaglutide	no discernable or unusual hunger	Desirable therapeutics effects (e.g. weigh loss) are achieved	no discernable or unusual hunger	Desirable therapeutics effects (e.g. weigh loss) are achieved	no discernable or unusual hunger	Desirable therapeutics effects (e.g. weigh loss) are achieved									
Semaglutide							No discernable/unusual hunger	no discernable or unusual hunger	30	−9.6	approximately 9.6%	−30	252	no discernable or unusual hunger	Desirable therapeutics effects (e.g. weigh loss) are achieved
